Test results: ChEMBL document CHEMBL1201862, “PubChem BioAssay data set” (2004)
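Assay format: 96-well plates, 48-hour exposure. Here, GI50 denotes the concentration required for 50% inhibition of growth.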 Active and inactive are the calls of the source. Cut-off read from the data, not from the text of the source: active = GI50 up to about 1.1 µM and inactive = higher.

How the values were obtained:
Test in all cases: NCI-60 cell line screen, 48 h
COLO 205 = system: COLO 205
HCC 2998 = system: HCC 2998
OVCAR-4 = system: OVCAR-4
RPMI-8226 = system: RPMI-8226
SR = system: SR
HOP-62 = system: HOP-62
M14 = system: M14
NCI-H226 = system: NCI-H226
RXF 393 = system: RXF 393
SK-MEL-28 = system: SK-MEL-28
SN12C = system: SN12C
SF-268 = system: SF-268
HT-29 = system: HT-29
U-251 = system: U-251
CAKI-1 = system: CAKI-1
LOX IMVI = system: LOX IMVI
SNB-19 = system: SNB-19
MDA-MB-435 = system: MDA-MB-435
DU-145 = system: DU-145

SMILES	GI50 (COLO 205)	GI50 (HCC 2998)	GI50 (OVCAR-4)	GI50 (RPMI-8226)	GI50 (SR)	GI50 (HOP-62)	GI50 (M14)	GI50 (NCI-H226)	GI50 (RXF 393)	GI50 (SK-MEL-28)	GI50 (SN12C)	GI50 (SF-268)	GI50 (HT-29)	GI50 (U-251)	GI50 (CAKI-1)	GI50 (LOX IMVI)	GI50 (SNB-19)	GI50 (MDA-MB-435)	GI50 (DU-145)
O=CC1CCCc2ccccc21 (configuration not stated)	> 42.7 µM (inactive)	> 100 µM (inactive)	> 100 µM (inactive)	> 43.1 µM (inactive)	> 100 µM (inactive)	> 100 µM (inactive)	> 100 µM (inactive)	> 100 µM (inactive)	> 100 µM (inactive)	> 100 µM (inactive)	> 100 µM (inactive)	> 31.6 µM (inactive)	> 100 µM (inactive)	> 41.5 µM (inactive)	> 100 µM (inactive)	> 44.1 µM (inactive)	> 100 µM (inactive)		
Cc1cccc(NC(=O)/C=C/c2ccccc2)c1C	> 100 µM (inactive)	> 100 µM (inactive)	> 100 µM (inactive)	> 100 µM (inactive)	> 100 µM (inactive)	85.9 µM (inactive)	> 100 µM (inactive)	> 100 µM (inactive)		> 100 µM (inactive)	> 100 µM (inactive)	> 100 µM (inactive)	> 100 µM (inactive)	> 100 µM (inactive)	> 100 µM (inactive)	> 100 µM (inactive)	> 100 µM (inactive)	> 100 µM (inactive)	> 100 µM (inactive)
Cn1c(=O)n(CC2CS2)c2ccccc21 (configuration not stated)	> 100 µM (inactive)	> 100 µM (inactive)	> 100 µM (inactive)	> 100 µM (inactive)	99.3 µM (inactive)	> 100 µM (inactive)	> 100 µM (inactive)	> 100 µM (inactive)	> 100 µM (inactive)	> 100 µM (inactive)	> 100 µM (inactive)	> 100 µM (inactive)	> 100 µM (inactive)		44.5 µM (inactive)	> 100 µM (inactive)	> 100 µM (inactive)		
O=C(c1ccccc1)[C@H]1Nc2ccc(Cl)cc2[C@H]2OCCC[C@@H]12	21.5 µM (inactive)	22.2 µM (inactive)	20.7 µM (inactive)	19.3 µM (inactive)	26.1 µM (inactive)	18 µM (inactive)	17.5 µM (inactive)	21.3 µM (inactive)	17.3 µM (inactive)	18.2 µM (inactive)	19.7 µM (inactive)	19 µM (inactive)	18.5 µM (inactive)	17.3 µM (inactive)	23 µM (inactive)	16.7 µM (inactive)	27.6 µM (inactive)		
CCOC(OC1=C(C#N)CCCC1)C(CC)[Se]c1ccccc1[N+](=O)[O-] (configuration not stated)	29.6 µM (inactive)	17.7 µM (inactive)	17.9 µM (inactive)	19.5 µM (inactive)	16.7 µM (inactive)	32.1 µM (inactive)	17.9 µM (inactive)	17.7 µM (inactive)	28.8 µM (inactive)	34 µM (inactive)	19.6 µM (inactive)	23 µM (inactive)	16.8 µM (inactive)	16.6 µM (inactive)	> 100 µM (inactive)	16 µM (inactive)	29 µM (inactive)		
O=C(Nc1ccccc1)C(=O)C(C(=O)c1ccccc1F)C1OC(=O)c2ccccc21 (configuration not stated)	22.4 µM (inactive)	30.3 µM (inactive)	31.6 µM (inactive)	35.1 µM (inactive)	21.5 µM (inactive)	42.8 µM (inactive)	44 µM (inactive)	25.1 µM (inactive)	35.8 µM (inactive)	40.6 µM (inactive)	37.1 µM (inactive)	21.1 µM (inactive)	37.9 µM (inactive)	22.9 µM (inactive)	55.6 µM (inactive)	27.2 µM (inactive)	27.5 µM (inactive)		
CS/C(=N\c1ccccc1)N(c1ccccc1)c1nc(=[N+](C)C)ss1.[O-][Cl+3]([O-])([O-])[O-]	0.0647 µM (active)	5.35 µM (inactive)	9.46 µM (inactive)	0.22 µM (active)	2.16 µM (inactive)	13.9 µM (inactive)	1.13 µM (inactive)	10 µM (inactive)	4.13 µM (inactive)	1.14 µM (inactive)	3.2 µM (inactive)	5.13 µM (inactive)	0.034 µM (active)	2.34 µM (inactive)	3.48 µM (inactive)	3.15 µM (inactive)	2.22 µM (inactive)		
Cc1ccc2c(c1CCCC(C)(C)O)C(=O)C(O)=C(C(C)C)C2=O	> 100 µM (inactive)	> 100 µM (inactive)	> 100 µM (inactive)	39.1 µM (inactive)	41.2 µM (inactive)		> 100 µM (inactive)	> 100 µM (inactive)	53.5 µM (inactive)	> 100 µM (inactive)	78.3 µM (inactive)	59.4 µM (inactive)	> 100 µM (inactive)	53.1 µM (inactive)	> 100 µM (inactive)		> 100 µM (inactive)		
Clc1ccc2c(Cl)nc(-c3ccccc3)nc2c1	41.2 µM (inactive)	34.8 µM (inactive)		10 µM (inactive)	25.2 µM (inactive)	53.2 µM (inactive)		13.2 µM (inactive)	23.4 µM (inactive)	32.2 µM (inactive)	21.8 µM (inactive)	24.9 µM (inactive)	26.4 µM (inactive)	11.8 µM (inactive)	23.6 µM (inactive)		35.6 µM (inactive)		
Cc1ccc(C(=O)CC2=Nc3nnc(CCCCCCCc4nnc5n4C(=O)C(CC(=O)c4ccc(C)cc4)=N5)n3C2=O)cc1	> 100 µM (inactive)	> 100 µM (inactive)	> 100 µM (inactive)	> 100 µM (inactive)	> 100 µM (inactive)	> 100 µM (inactive)	> 100 µM (inactive)	> 100 µM (inactive)	> 100 µM (inactive)	> 100 µM (inactive)	> 100 µM (inactive)	> 100 µM (inactive)	> 100 µM (inactive)	> 100 µM (inactive)	> 100 µM (inactive)	> 100 µM (inactive)	> 100 µM (inactive)		
C[P+](C)(C)c1ccccc1	> 100 µM (inactive)	> 100 µM (inactive)	> 100 µM (inactive)	> 100 µM (inactive)	> 100 µM (inactive)	> 100 µM (inactive)	> 100 µM (inactive)	> 100 µM (inactive)	> 100 µM (inactive)	> 100 µM (inactive)	> 100 µM (inactive)	> 100 µM (inactive)	> 100 µM (inactive)	> 100 µM (inactive)	> 100 µM (inactive)	> 100 µM (inactive)	> 100 µM (inactive)		
COc1ccc(/C(Cl)=C(\CN(C)C)c2ccc(OC)c(OC)c2)cc1OC.[B]		> 100 µM (inactive)	1.19 µM (inactive)	> 100 µM (inactive)	> 100 µM (inactive)	24.3 µM (inactive)	> 100 µM (inactive)	> 100 µM (inactive)	15.7 µM (inactive)		> 100 µM (inactive)	> 100 µM (inactive)	> 100 µM (inactive)	8.61 µM (inactive)	> 100 µM (inactive)	> 100 µM (inactive)	17 µM (inactive)		
